The source of these data is patent US10752613B2, “Compounds and their use for reducing uric acid levels” (Acquist LLC, priority 2016, dated 2020).

“Also recorded” adds a separate entry of the source.

As usually defined, the IC50 is the midpoint of a concentration-inhibition curve. Low values mean higher potency, high ones lower potency.

The test deals with xanthine oxidase (Homo sapiens (Human), UniProt P47989). The experiment in a line: Fluorescence-based xanthine oxidase activity assay. Format: biochemical. The note with it: for IC50: fluorescence-based assay, triplicate, 10 concentrations; for Xanthine oxidase inhibition compared with allopurinol: comparison in words.
Sequence of xanthine oxidase (P47989 whole entry, species assumed): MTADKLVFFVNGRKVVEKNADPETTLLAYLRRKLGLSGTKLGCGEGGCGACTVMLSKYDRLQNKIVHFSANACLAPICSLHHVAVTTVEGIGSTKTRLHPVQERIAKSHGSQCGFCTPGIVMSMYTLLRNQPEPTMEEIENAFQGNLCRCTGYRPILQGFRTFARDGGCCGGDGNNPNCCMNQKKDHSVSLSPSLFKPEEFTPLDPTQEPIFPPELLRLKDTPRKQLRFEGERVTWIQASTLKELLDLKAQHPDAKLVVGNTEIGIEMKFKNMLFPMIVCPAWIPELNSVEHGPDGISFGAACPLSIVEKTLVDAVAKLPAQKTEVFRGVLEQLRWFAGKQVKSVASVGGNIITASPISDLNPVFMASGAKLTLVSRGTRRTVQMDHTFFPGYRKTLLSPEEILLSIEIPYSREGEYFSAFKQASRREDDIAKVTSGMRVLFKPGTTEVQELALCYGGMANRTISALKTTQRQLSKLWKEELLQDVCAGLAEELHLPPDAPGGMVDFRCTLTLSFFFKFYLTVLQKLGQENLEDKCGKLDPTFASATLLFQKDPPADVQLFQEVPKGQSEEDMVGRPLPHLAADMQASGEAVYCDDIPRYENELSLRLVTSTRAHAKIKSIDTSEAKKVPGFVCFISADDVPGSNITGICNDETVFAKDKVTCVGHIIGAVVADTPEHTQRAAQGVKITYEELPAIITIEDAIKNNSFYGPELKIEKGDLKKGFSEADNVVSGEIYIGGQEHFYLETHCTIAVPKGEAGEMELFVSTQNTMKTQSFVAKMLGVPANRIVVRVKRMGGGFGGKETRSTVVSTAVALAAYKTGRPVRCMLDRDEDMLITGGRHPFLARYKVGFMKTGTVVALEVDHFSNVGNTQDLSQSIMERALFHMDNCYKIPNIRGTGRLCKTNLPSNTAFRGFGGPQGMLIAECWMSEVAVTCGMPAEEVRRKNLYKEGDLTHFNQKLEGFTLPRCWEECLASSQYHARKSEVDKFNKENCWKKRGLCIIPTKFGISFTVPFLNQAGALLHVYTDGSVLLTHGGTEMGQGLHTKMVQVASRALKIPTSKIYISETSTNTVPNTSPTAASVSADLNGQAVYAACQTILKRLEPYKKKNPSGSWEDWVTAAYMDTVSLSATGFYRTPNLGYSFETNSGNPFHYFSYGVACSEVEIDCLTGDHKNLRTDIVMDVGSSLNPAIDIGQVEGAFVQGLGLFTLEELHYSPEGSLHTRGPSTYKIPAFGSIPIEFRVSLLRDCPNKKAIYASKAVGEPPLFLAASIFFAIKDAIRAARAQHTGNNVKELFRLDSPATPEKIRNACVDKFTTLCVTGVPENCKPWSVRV

For `O=C(Nc1cccc(-c2cn[nH]n2)c1)c1c(O)[nH]c(=O)[nH]c1=O` [Formula (Ia), N-(3-(1H-1,2,3-triazol-5-yl)phenyl)-6-hydroxy-2,4-dioxo-1,2,3,4-tetrahydropyrimidine-5-carboxamide], half-maximal inhibition (IC50) was put at 6.5 µM. In turn, `O=C(Nc1ccc(-c2nn[nH]c2-c2ccccc2)cc1)c1c(O)[nH]c(=O)[nH]c1=O` [Formula (Ic), 6-hydroxy-2,4-dioxo-N-(4-(4-phenyl-1H-1,2,3-triazol-5-yl)phenyl)-1,2,3,4-tetrahydropyrimidine-5-carboxamide] showed an IC50 of 12.2 µM.

In the case of `O=C(Nc1ccc(-c2nc(C(F)(F)F)n[nH]2)cc1)c1c(O)[nH]c(=O)[nH]c1=O` [Formula (Ie), 6-hydroxy-2,4-dioxo-N-(4-(3-(trifluoromethyl)-1H-1,2,4-triazol-5-yl)phenyl)-1,2,3,4-tetrahydropyrimidine-5-carboxamide], half-maximal inhibition (IC50) was put at 14.5 µM.

`O=C(Nc1ccc(-c2cn[nH]c2)cc1)c1c(O)[nH]c(=O)[nH]c1=O` [Formula (If), N-(4-(1H-pyrazol-4-yl)phenyl)-6-hydroxy-2,4-dioxo-1,2,3,4-tetrahydropyrimidine-5-carboxamide]: it took 70.1 µM to reach half-maximal inhibition (IC50). This IC50 is about 4.8-fold higher than that of the molecule before. Turning to `O=C(Nc1ccc(-c2c[nH]nn2)c(C(F)(F)F)c1)c1c(O)[nH]c(=O)[nH]c1=O` [Formula (Ig), N-(4-(1H-1,2,3-triazol-5-yl)-3-(trifluoromethyl)phenyl)-6-hydroxy-2,4-dioxo-1,2,3,4-tetrahydropyrimidine-5-carboxamide], the “Xanthine oxidase inhibition compared with allopurinol” value is reported as “comparable to allopurinol” and the IC50 amounted to 2.2 µM. The matching figures for `O=C(Nc1ccc(-c2c[nH]nn2)cc1C(F)(F)F)c1c(O)[nH]c(=O)[nH]c1=O` [Formula (Ih), N-(4-(1H-1,2,3-triazol-5-yl)-2-(trifluoromethyl)phenyl)-6-hydroxy-2,4-dioxo-1,2,3,4-tetrahydropyrimidine-5-carboxamide]: “more potent inhibitors of xanthine oxidase than allopurinol; also recorded: comparable to allopurinol” and 1.2 µM. The matching figures for `O=C(Nc1ccc(-c2cc(O)n[nH]2)cc1)c1c(O)[nH]c(=O)[nH]c1=O` [Formula (Ii), 6-hydroxy-N-(4-(3-hydroxy-1H-pyrazol-5-yl)phenyl)-2,4-dioxo-1,2,3,4-tetrahydropyrimidine-5-carboxamide]: “more potent inhibitors of xanthine oxidase than allopurinol” and 1.3 µM. On to `O=C(Nc1ccc(-c2cn[nH]c2C(F)(F)F)cc1)c1c(O)[nH]c(=O)[nH]c1=O` [Formula (Ij), 6-hydroxy-2,4-dioxo-N-(4-(5-(trifluoromethyl)-1H-pyrazol-4-yl)phenyl)-1,2,3,4-tetrahydropyrimidine-5-carboxamide], for which 16.3 µM corresponded to half-maximal inhibition (IC50). In turn, `O=C(Nc1ccc(-n2cc(C(F)(F)F)cn2)cc1)c1c(O)[nH]c(=O)[nH]c1=O` [Formula (Ik), 6-hydroxy-2,4-dioxo-N-(4-(4-(trifluoromethyl)-1H-pyrazol-1-yl)phenyl)-1,2,3,4-tetrahydropyrimidine-5-carboxamide] showed an IC50 of 68 µM. `O=C(Nc1ccc(-c2cc(C(F)(F)F)n[nH]2)cc1)c1c(O)[nH]c(=O)[nH]c1=O` [Formula (Il), 6-hydroxy-2,4-dioxo-N-(4-(3-(trifluoromethyl)-1H-pyrazol-5-yl)phenyl)-1,2,3,4-tetrahydropyrimidine-5-carboxamide]: half-maximal inhibition (IC50) required 67.9 µM. This IC50 and that of the molecule before are within 1.5-fold of each other. On the same count and under the same terms, the result for `O=C(Nc1ccc(-c2[nH]ncc2C(F)(F)F)cc1)c1c(O)[nH]c(=O)[nH]c1=O` [Formula (Im), 6-hydroxy-2,4-dioxo-N-(4-(4-(trifluoromethyl)-1H-pyrazol-5-yl)phenyl)-1,2,3,4-tetrahydropyrimidine-5-carboxamide] reads 25.2 µM.
